# Assay results published in ChEMBL document CHEMBL3120136 (J Med Chem, 2014).
# *1 amine or outer side, *2 acyl side, *3 side chain or, on linkers, in order; H or OH if unused. Where a SMILES comes first, the peptide text is derived from it. Side-chain parts run from the residue outwards. [ ]: non-standard residue; d: D form. The star is where a group is joined. Tetrahydroisoquinolin(2-yl) = c1ccc2c(c1)CCN(*)C2; Ac3c(1R,2S-2-vinyl) = C=C[C@@H]1C[C@]1(N)C(=O)O; Hyp = O=C(O)[C@@H]1C[C@@H](O)CN1; Chg = N[C@H](C(=O)O)C1CCCCC1; CO = O=C([*:1])[*:2]; Carbamoyl = NC(=O)*
# How the values were obtained:
# Hepatitis C virus = assay: Antiviral activity against Hepatitis C virus infected in human HuH7 cells assessed as inhibition of HCV subgenomic replicon replication after 72 hrs by ELISA; format: functional, organism-based, Hepacivirus hominis, Huh-7; details: Hepatitis C virus, Huh-7, 72 h; read-out: EC50
# [1] = Inhibition of Hepatitis C virus full-length NS3/4A protease assessed as quenched-fluorogenic RET-S1 substrate cleavage incubated for 10 mins prior to substrate addition by FRET analysis; parameters: species or system Hepacivirus hominis
EC50 (Hepatitis C virus) [µM],IC50 [1] [µM],Compound
0.0058,0.0007,CC(C)(C)OC(=O)N[C@H]1CCCCCCC[C@@H]2C[C@@]2(C(=O)NS(=O)(=O)C2CC2)NC(=O)[C@@H]2C[C@@H](OC(=O)N3Cc4cccc(F)c4C3)CN2C1=O
0.01,0.0041,COc1ccc(S(=O)(=O)NC(=O)[C@@]23C[C@H]2/C=C\CCCCC[C@H](NC(=O)OC(C)(C)C)C(=O)N2C[C@H](OC(=O)N4Cc5ccccc5C4)C[C@H]2C(=O)N3)cc1
1.27,0.01,CC(C)(C)OC(=O)N[C@H]1CCCCC/C=C\[C@@H]2C[C@@]2(C(=O)O)NC(=O)[C@@H]2C[C@@H](OC(=O)N3Cc4cccc(F)c4C3)CN2C1=O
0.516,0.013,CC(C)(C)OC(=O)N[C@H]1CCCCC/C=C\[C@@H]2C[C@@]2(C(=O)O)NC(=O)[C@@H]2C[C@@H](OC(=O)N3Cc4cccc(Cl)c4C3)CN2C1=O
0.365,0.0082,CC(C)(C)OC(=O)N[C@H]1CCCCC/C=C\[C@@H]2C[C@@]2(C(=O)NS(=O)(=O)C2CC2)NC(=O)[C@@H]2C[C@@H](NC(=S)N3CCc4ccccc4C3)CN2C1=O
0.077,0.0018,CC(C)(C)OC(=O)N[C@H]1CCCCC/C=C\[C@@H]2C[C@@]2(C(=O)NS(=O)(=O)C2CC2)NC(=O)[C@@H]2C[C@@H](OC(=O)N3Cc4cccc(N5CCOCC5)c4C3)CN2C1=O
0.013,0.0077,COCC1(S(=O)(=O)NC(=O)[C@@]23C[C@H]2/C=C\CCCCC[C@H](NC(=O)OC(C)(C)C)C(=O)N2C[C@H](OC(=O)N4Cc5ccccc5C4)C[C@H]2C(=O)N3)CC1
6.3,0.22,CO[C@@H]1C[C@H]2C(=O)N[C@]3(C(=O)NS(=O)(=O)C4CC4)C[C@H]3/C=C\CCCCC[C@H](NC(=O)OC(C)(C)C)C(=O)N2C1
0.043,0.0021,CC(C)(C)OC(=O)N[C@H]1CCCCC/C=C\[C@@H]2C[C@@]2(C(=O)NS(=O)(=O)C2CC2)NC(=O)[C@@H]2C[C@@H](OC(=O)N3CCc4cccc(Cl)c4C3)CN2C1=O
1.48,0.021,CC(C)(C)OC(=O)N[C@H]1CCCCC/C=C\[C@@H]2C[C@@]2(C(=O)O)NC(=O)[C@@H]2C[C@@H](OC(=O)N3Cc4c(Cl)ccc(Cl)c4C3)CN2C1=O
0.0124,0.0012,CC(C)(C)OC(=O)N[C@H]1COCCCCC[C@@H]2C[C@@]2(C(=O)NS(=O)(=O)C2CC2)NC(=O)[C@@H]2C[C@@H](OC(=O)N3Cc4cccc(F)c4C3)CN2C1=O
0.024,0.001,CC(C)(C)OC(=O)N[C@H]1CCCCC/C=C\[C@@H]2C[C@@]2(C(=O)NS(=O)(=O)C2CC2)NC(=O)[C@@H]2C[C@@H](OC(=O)N3Cc4cc(Cl)c(Cl)cc4C3)CN2C1=O
0.184,0.011,COc1ccc(NS(=O)(=O)NC(=O)[C@@]23C[C@H]2/C=C\CCCCC[C@H](NC(=O)OC(C)(C)C)C(=O)N2C[C@H](OC(=O)N4Cc5ccccc5C4)C[C@H]2C(=O)N3)cc1
0.045,0.0008,CC(C)(C)OC(=O)N[C@H]1CCCCC/C=C\[C@@H]2C[C@@]2(C(=O)NS(=O)(=O)C2CC2)NC(=O)[C@@H]2C[C@@H](OC(=O)N3Cc4ccc(N5CCOCC5)cc4C3)CN2C1=O
0.0766,0.0015,CC(C)(C)OC(=O)N[C@H]1CCCC/C=C\[C@@H]2C[C@@]2(C(=O)NS(=O)(=O)C2CC2)NC(=O)[C@@H]2C[C@@H](OC(=O)N3Cc4cccc(F)c4C3)CN2C1=O
0.097,0.0079,CC(C)(C)OC(=O)N[C@H]1CCCCC/C=C\[C@@H]2C[C@@]2(C(=O)NS(=O)(=O)Nc2ccc(Cl)cc2)NC(=O)[C@@H]2C[C@@H](OC(=O)N3Cc4ccccc4C3)CN2C1=O
> 10,0.21,"C=C[C@@H]1C[C@]1(NC(=O)[C@@H]1C[C@@H](OC(=O)N2CCc3ccccc3C2)CN1C(=O)[C@@H](NC(=O)[C@@H](NC(C)=O)C1CCCCC1)C(C)C)C(=O)O (Ac-[Chg]V[Hyp]([CO-Tetrahydroisoquinolin(2-yl)])[Ac3c(1R,2S-2-vinyl)]-OH)"
0.217,0.0022,O=C(N[C@H]1CCCCC/C=C\[C@@H]2C[C@@]2(C(=O)NS(=O)(=O)C2CC2)NC(=O)[C@@H]2C[C@@H](OC(=O)N3Cc4ccccc4C3)CN2C1=O)O[C@H]1CCOC1
0.0095,0.0014,CC(C)(C)OC(=O)N[C@H]1CCCCC/C=C\[C@@H]2C[C@@]2(C(=O)NS(=O)(=O)C2CC2)NC(=O)[C@@H]2C[C@@H](NC(=O)c3sc4cccc(Cl)c4c3Cl)CN2C1=O
0.012,0.0011,CC(C)(C)OC(=O)N[C@H]1CCCCC/C=C\[C@@H]2C[C@@]2(C(=O)NS(=O)(=O)C2CC2)NC(=O)[C@@H]2C[C@@H](OC(=O)N3CCc4cccc(F)c4C3)CN2C1=O
0.025,0.0016,CC(C)(C)OC(=O)N[C@H]1CCCCC/C=C\[C@@H]2C[C@@]2(C(=O)NS(=O)(=O)C2(Cc3ccccc3)CC2)NC(=O)[C@@H]2C[C@@H](OC(=O)N3Cc4ccccc4C3)CN2C1=O

EC50 (Hepatitis C virus) [µM],IC50 [1] [µM],Compound
0.044,0.0005,CC(C)(C)OC(=O)N[C@H]1CCCC(F)(F)C/C=C\[C@@H]2C[C@@]2(C(=O)NS(=O)(=O)C2CC2)NC(=O)[C@@H]2C[C@@H](OC(=O)N3Cc4cccc(F)c4C3)CN2C1=O
0.837,0.007,CN1CC/C=C\[C@@H]2C[C@@]2(C(=O)NS(=O)(=O)C2CC2)NC(=O)[C@@H]2C[C@@H](OC(=O)N3Cc4cccc(F)c4C3)CN2C(=O)[C@@H](NC(=O)OC(C)(C)C)CC1
> 10,0.2,"C=C[C@@H]1C[C@]1(NC(=O)[C@@H]1C[C@@H](OC(N)=O)CN1C(=O)[C@@H](NC(=O)[C@@H](NC(C)=O)C1CCCCC1)C(C)C)C(=O)O (Ac-[Chg]V[Hyp](Carbamoyl)[Ac3c(1R,2S-2-vinyl)]-OH)"
0.097,0.0022,O=C(N[C@H]1CCCCC/C=C\[C@@H]2C[C@@]2(C(=O)NS(=O)(=O)C2CC2)NC(=O)[C@@H]2C[C@@H](OC(=O)N3Cc4ccccc4C3)CN2C1=O)OC1CCOCC1
0.0072,0.0015,CC(C)(C)OC(=O)N[C@H]1CCC(F)(F)CC/C=C\[C@@H]2C[C@@]2(C(=O)NS(=O)(=O)C2CC2)NC(=O)[C@@H]2C[C@@H](OC(=O)N3Cc4cccc(F)c4C3)CN2C1=O
0.013,0.0035,CC(C)(C)OC(=O)N[C@H]1CCCCC/C=C\[C@@H]2C[C@@]2(C(=O)NS(=O)(=O)C2CC2)NC(=O)[C@@H]2C[C@@H](NC(=O)c3nc4ccccc4s3)CN2C1=O
0.005,0.003,CCCC1(S(=O)(=O)NC(=O)[C@@]23C[C@H]2/C=C\CCCCC[C@H](NC(=O)OC(C)(C)C)C(=O)N2C[C@H](OC(=O)N4Cc5ccccc5C4)C[C@H]2C(=O)N3)CC1
0.029,0.0012,CC(C)(C)OC(=O)N[C@H]1CCCCC/C=C\[C@@H]2C[C@@]2(C(=O)NS(=O)(=O)C2CC2)NC(=O)[C@@H]2C[C@@H](OC(=O)N3Cc4cccc(C(F)(F)F)c4C3)CN2C1=O
0.166,0.0048,CC(C)(C)OC(=O)N[C@H]1CCCCC/C=C\[C@@H]2C[C@@]2(C(=O)NS(=O)(=O)C(F)(F)F)NC(=O)[C@@H]2C[C@@H](OC(=O)N3Cc4ccccc4C3)CN2C1=O
0.049,0.0011,CC(C)(C)OC(=O)N[C@H]1CCCCC/C=C\[C@@H]2C[C@@]2(C(=O)NS(=O)(=O)C2CC2)NC(=O)[C@@H]2C[C@@H](OC(=O)N3Cc4cccc(Br)c4C3)CN2C1=O
0.254,0.001,CC(C)(C)OC(=O)N[C@H]1CCCOCCC[C@@H]2C[C@@]2(C(=O)NS(=O)(=O)C2CC2)NC(=O)[C@@H]2C[C@@H](OC(=O)N3Cc4cccc(F)c4C3)CN2C1=O
0.111,0.0046,CC(C)(C)OC(=O)N[C@H]1CCCCC/C=C\[C@@H]2C[C@@]2(C(=O)NS(=O)(=O)c2ccc(Cl)s2)NC(=O)[C@@H]2C[C@@H](OC(=O)N3Cc4ccccc4C3)CN2C1=O
0.052,0.0044,CC(C)(C)OC(=O)N[C@H]1CCCCC/C=C\[C@@H]2C[C@@]2(C(=O)NS(=O)(=O)N2CCOCC2)NC(=O)[C@@H]2C[C@@H](OC(=O)N3Cc4ccccc4C3)CN2C1=O
0.0118,0.0026,CC(C)(C)OC(=O)N[C@H]1CCCCC/C=C\[C@@H]2C[C@@]2(C(=O)NS(=O)(=O)N2CCCC2)NC(=O)[C@@H]2C[C@@H](OC(=O)N3Cc4ccccc4C3)CN2C1=O
0.0702,0.0018,CC(C)(C)OC(=O)N[C@H]1COCCC/C=C\[C@@H]2C[C@@]2(C(=O)NS(=O)(=O)C2CC2)NC(=O)[C@@H]2C[C@@H](OC(=O)N3Cc4cccc(F)c4C3)CN2C1=O
0.125,0.003,CC(C)(C)OC(=O)N[C@H]1CCCCC/C=C\[C@@H]2C[C@@]2(C(=O)NS(=O)(=O)c2ccc(C#N)cc2)NC(=O)[C@@H]2C[C@@H](OC(=O)N3Cc4ccccc4C3)CN2C1=O
0.046,0.017,CN1CCN(S(=O)(=O)NC(=O)[C@@]23C[C@H]2/C=C\CCCCC[C@H](NC(=O)OC(C)(C)C)C(=O)N2C[C@H](OC(=O)N4Cc5ccccc5C4)C[C@H]2C(=O)N3)CC1
0.73,0.021,CC(C)(C)OC(=O)N[C@H]1CCCCC/C=C\[C@@H]2C[C@@]2(C(=O)NS(=O)(=O)C2CC2)NC(=O)[C@@H]2C[C@@H](Nc3nc4ccccc4o3)CN2C1=O
0.112,0.0025,CC(C)(C)OC(=O)N[C@H]1CCCCC/C=C\[C@@H]2C[C@@]2(C(=O)NS(=O)(=O)C2CC2)NC(=O)[C@@H]2C[C@@H](OC(=O)N3Cc4ccc(C#N)cc4C3)CN2C1=O
0.362,0.0029,CC(C)(C)OC(=O)N[C@H]1CCCCC/C=C\[C@@H]2C[C@@]2(C(=O)NS(=O)(=O)C2CC2)NC(=O)[C@@H]2C[C@@H](NC(=O)N3CCc4ccccc4C3)CN2C1=O
